BindingDB's records for doi:10.1021/jm00384a016 (1987)

Target: T1, Adenosine receptor A1 (Rattus norvegicus, UniProt P25099)
T1 sequence (P25099 whole entry): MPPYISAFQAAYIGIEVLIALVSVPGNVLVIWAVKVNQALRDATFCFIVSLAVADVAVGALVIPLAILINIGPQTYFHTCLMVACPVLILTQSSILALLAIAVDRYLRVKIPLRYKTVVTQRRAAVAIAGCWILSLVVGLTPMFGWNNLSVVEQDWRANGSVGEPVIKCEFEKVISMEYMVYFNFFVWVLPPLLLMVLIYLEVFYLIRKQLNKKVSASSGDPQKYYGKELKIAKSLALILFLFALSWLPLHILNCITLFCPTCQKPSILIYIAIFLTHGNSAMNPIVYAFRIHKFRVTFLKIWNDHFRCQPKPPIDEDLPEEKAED
Assay: Binding affinity against adenosine A1 receptor in rat brain membrane using N6-[3H]cyclohexyladenosine

Ki: 370 nM
SMILES: CC(Sc1nc(SC(C)C(N)=O)c2cnn(-c3ccccc3)c2n1)C(N)=O (stereo unspecified) [2-[6-(1-Carbamoyl-ethylsulfanyl)-1-phenyl-1H-pyrazolo[3,4-d]pyrimidin-4-ylsulfanyl]-propionamide]
